# ChEMBL document CHEMBL5247622, “Structural optimization of Imidazo[1, 2-a]pyridine derivatives for the treatment of gastric cancer via STAT3 signaling pathway” (Eur J Med Chem, 2022)
# Active and inactive are the calls of the source. The calls are words filed in the database; no cut-off is given here.
# Columns and labels:
# [1] = test system: AGS; experiment: Antiproliferative activity against human AGS cells assessed as reduction in cell viability incubated for 72 hrs by CCK-8 assay; type: functional, cell-based
# [2] = biological target: Signal transducer and activator of transcription 3 (Homo sapiens) (UniProt P40763); experiment: Inhibition of STAT3 (unknown origin) transcriptional signaling transfected in HEK293T cells at 3 uM incubated for 24 hrs by firefly luciferase gene reporter assay; type: cell-based
# Sequence of Signal transducer and activator of transcription 3 (Homo sapiens) (P40763 whole entry): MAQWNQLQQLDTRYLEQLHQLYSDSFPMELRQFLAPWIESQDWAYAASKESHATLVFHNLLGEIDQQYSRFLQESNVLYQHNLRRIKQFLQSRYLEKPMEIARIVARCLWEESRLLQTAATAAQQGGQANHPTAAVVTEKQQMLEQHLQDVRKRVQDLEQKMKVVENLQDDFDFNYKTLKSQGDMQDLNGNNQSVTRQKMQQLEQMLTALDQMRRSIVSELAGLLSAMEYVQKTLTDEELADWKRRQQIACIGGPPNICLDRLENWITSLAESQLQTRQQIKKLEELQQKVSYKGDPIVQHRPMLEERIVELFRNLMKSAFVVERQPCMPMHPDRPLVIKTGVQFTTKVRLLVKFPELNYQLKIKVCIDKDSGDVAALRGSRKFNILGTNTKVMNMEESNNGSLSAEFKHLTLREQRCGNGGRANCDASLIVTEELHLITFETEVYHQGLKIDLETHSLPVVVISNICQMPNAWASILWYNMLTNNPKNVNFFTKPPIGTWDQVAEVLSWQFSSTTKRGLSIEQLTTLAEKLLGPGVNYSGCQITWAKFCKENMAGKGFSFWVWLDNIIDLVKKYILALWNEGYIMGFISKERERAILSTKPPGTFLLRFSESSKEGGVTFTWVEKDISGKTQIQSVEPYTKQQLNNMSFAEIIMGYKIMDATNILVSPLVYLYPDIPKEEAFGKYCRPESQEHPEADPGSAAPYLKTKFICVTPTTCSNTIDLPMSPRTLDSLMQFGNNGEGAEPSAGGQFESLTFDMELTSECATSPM
# [3] = biological target: Signal transducer and activator of transcription 3 (Homo sapiens) (UniProt P40763); experiment: Thermal stabilization of STAT3 in human AGS cells at 1 uM at 37 to 54 degreeC incubated for 1 hr by cellular thermal shift assay; type: cell-based
# [4] = biological target: Signal transducer and activator of transcription 3 (Homo sapiens) (UniProt P40763); experiment: Inhibition of STAT3 in human MGC-803 cells assessed as inhibition of STAT3 phosphorylation level at Tyr705 at 0.3 to 3 uM by western blot assay; type: cell-based; conditions: dose 0.3-3 µM
# [5] = biological target: Signal transducer and activator of transcription 3 (Homo sapiens) (UniProt P40763); experiment: Inhibition of STAT3 in human MGC-803 cells assessed as inhibition of total STAT3 protein level at 0.3 to 3 uM by western blot assay; type: cell-based; conditions: dose 0.3-3 µM
# [6] = test system: AGS; experiment: Inhibition of colony formation in human AGS cells at 0.3 to 3 uM incubated for 10 to 15 days by crystal violet staining based assay; type: functional, cell-based; conditions: dose 0.3-3 µM, time 10-15 day
# [7] = test system: MGC-803; experiment: Inhibition of colony formation in human MGC-803 cells at 0.3 to 3 uM incubated for 10 to 15 days by crystal violet staining based assay; type: functional, cell-based; conditions: dose 0.3-3 µM, time 10-15 day
# [8] = test system: AGS; experiment: Induction of apoptosis in human AGS cells assessed as viable cells at 0.3 uM incubated for 48 hrs by Annexin V-FITC/PI staining based flow cytometry method (reference value: 94.8 %); type: functional; conditions: read-out: Activity
# [9] = test system: AGS; experiment: Induction of apoptosis in human AGS cells assessed as viable cells at 1 uM incubated for 48 hrs by Annexin V-FITC/PI staining based flow cytometry method (reference value: 94.8 %); type: functional; conditions: read-out: Activity
# [10] = test system: AGS; experiment: Induction of apoptosis in human AGS cells assessed as early apoptotic cells at 0.3 uM incubated for 48 hrs by Annexin V-FITC/PI staining based flow cytometry method (reference value: 2.38 %); type: functional
# [11] = test system: AGS; experiment: Induction of apoptosis in human AGS cells assessed as early apoptotic cells at 1 uM incubated for 48 hrs by Annexin V-FITC/PI staining based flow cytometry method (reference value: 2.38 %); type: functional
# [12] = test system: AGS; experiment: Induction of apoptosis in human AGS cells assessed as early apoptotic cells at 3 uM incubated for 48 hrs by Annexin V-FITC/PI staining based flow cytometry method (reference value: 2.38 %); type: functional
# [13] = test system: AGS; experiment: Induction of apoptosis in human AGS cells assessed as late apoptotic cells at 0.3 uM incubated for 48 hrs by Annexin V-FITC/PI staining based flow cytometry method (reference value: 2.46 %); type: functional
# [14] = test system: AGS; experiment: Induction of apoptosis in human AGS cells assessed as late apoptotic cells at 3 uM incubated for 48 hrs by Annexin V-FITC/PI staining based flow cytometry method (reference value: 2.46 %); type: functional
# [15] = test system: AGS; experiment: Induction of apoptosis in human AGS cells assessed as necrotic cells at 1 uM incubated for 48 hrs by Annexin V-FITC/PI staining based flow cytometry method (reference value: 0.32 %); type: functional
# [16] = test system: AGS; experiment: Induction of apoptosis in human AGS cells assessed as necrotic cells at 3 uM incubated for 48 hrs by Annexin V-FITC/PI staining based flow cytometry method (reference value: 0.32 %); type: functional
# [17] = test system: AGS; experiment: Inhibition of cell invasion in human AGS cells at 0.03 to 0.3 uM incubated for 12 hrs by crystal violet staining based transwell assay; type: functional; conditions: dose 0.03-0.3 µM
# [18] = test system: MGC-803; experiment: Inhibition of cell invasion in human MGC-803 cells at 0.03 to 0.3 uM incubated for 12 hrs by crystal violet staining based transwell assay; type: functional; conditions: dose 0.03-0.3 µM
# [19] = test system: MGC-803; experiment: Antitumor activity against human MGC-803 cells xenografted in BALB/c mouse assessed as inhibition of tumor volume at 5 to 15 mg/kg,ip administrated for 21 consecutive days; type: functional, organism-based; conditions: dose 5-15 mg/kg
# [20] = test system: MGC-803; experiment: Antitumor activity against human MGC-803 cells xenografted in BALB/c mouse assessed as inhibition of tumor weight at 5 to 15 mg/kg,ip administrated for 21 consecutive days; type: functional, organism-based; conditions: dose 5-15 mg/kg
# [21] = test system: MGC-803; experiment: Antitumor activity against human MGC-803 cells xenografted in BALB/c mouse assessed as tumor growth inhibition at 5 mg/kg,ip administrated for 21 consecutive days relative to control; type: functional; conditions: read-out: TGI
# [22] = Toxicity in BALB/c mouse xenografted with human MGC-803 cells assessed as morphological change in heart at 5 mg/kg,ip administrated for 21 consecutive days by hematoxylin and eosin staining method; type: organism-based; conditions: in vivo
# [23] = Toxicity in BALB/c mouse xenografted with human MGC-803 cells assessed as morphological change in liver at 5 mg/kg,ip administrated for 21 consecutive days by hematoxylin and eosin staining method; type: organism-based; conditions: in vivo
# [24] = Toxicity in BALB/c mouse xenografted with human MGC-803 cells assessed as morphological change in spleen at 5 mg/kg,ip administrated for 21 consecutive days by hematoxylin and eosin staining method; type: organism-based; conditions: in vivo
# [25] = Toxicity in BALB/c mouse xenografted with human MGC-803 cells assessed as morphological change in lung at 5 mg/kg,ip administrated for 21 consecutive days by hematoxylin and eosin staining method; type: organism-based; conditions: in vivo
# [26] = Toxicity in BALB/c mouse xenografted with human MGC-803 cells assessed as morphological change in liver at 15 mg/kg,ip administrated for 21 consecutive days by hematoxylin and eosin staining method; type: organism-based; conditions: in vivo
# [27] = Toxicity in BALB/c mouse xenografted with human MGC-803 cells assessed as morphological change in spleen at 15 mg/kg,ip administrated for 21 consecutive days by hematoxylin and eosin staining method; type: organism-based; conditions: in vivo
# [28] = Toxicity in BALB/c mouse xenografted with human MGC-803 cells assessed as morphological change in lung at 15 mg/kg,ip administrated for 21 consecutive days by hematoxylin and eosin staining method; type: organism-based; conditions: in vivo
# [29] = test system: MGC-803; experiment: Antitumor activity against human MGC-803 cells xenografted in BALB/c mouse assessed as reduction of Ki67 expression level in tumor at 5 mg/kg,ip administrated for 21 consecutive days by immunohistochemistry analysis; type: functional, organism-based
# [30] = biological target: Signal transducer and activator of transcription 3 (Homo sapiens) (UniProt P40763); experiment: In vivo inhibition of STAT3 in BALB/c mouse xenografted with human MGC-803 cells assessed as reduction of STAT3 phosphorylation level at Tyr705 in tumor at 15 mg/kg,ip administrated for 21 consecutive days by immunohistochemistry analysis; type: functional, organism-based
# [31] = biological target: Signal transducer and activator of transcription 3 (Homo sapiens) (UniProt P40763); experiment: In vivo inhibition of STAT3 in BALB/c mouse xenografted with human MGC-803 cells assessed as reduction of c-Myc expression in tumor at 5 mg/kg,ip administrated for 21 consecutive days by immunohistochemistry analysis; type: functional, organism-based
# [32] = biological target: Signal transducer and activator of transcription 3 (Homo sapiens) (UniProt P40763); experiment: In vivo inhibition of STAT3 in BALB/c mouse xenografted with human MGC-803 cells assessed as reduction of c-Myc expression in tumor at 15 mg/kg,ip administrated for 21 consecutive days by immunohistochemistry analysis; type: functional, organism-based
# [33] = biological target: Signal transducer and activator of transcription 3 (Homo sapiens) (UniProt P40763); experiment: In vivo inhibition of STAT3 in BALB/c mouse xenografted with human MGC-803 cells assessed as reduction of Mcl-1 expression in tumor at 15 mg/kg,ip administrated for 21 consecutive days by immunohistochemistry analysis; type: functional, organism-based
smiles,measurement,setting,value
Cc1cc(NC(=O)c2ccc([N+](=O)[O-])o2)ccc1-c1cnc2ccccn12,IC50,[1],0.39 µM
same,inhibition,[2],Active
same,Activity,[3],Active
same,inhibition,[4],Dose-Dependent Effect
same,inhibition,[5],inactive
same,inhibition,[6],Dose-Dependent Effect
same,inhibition,[7],Dose-Dependent Effect
same,viability at 0.3 µM,[8],93.7%
same,viability at 1 µM,[9],92.1%
same,Activity,[10],2.49%
same,Activity,[11],4.52%
same,Activity,[12],12.1%
same,Activity,[13],3.15%
same,Activity,[14],6.37%
same,Activity,[15],0.75%
same,Activity,[16],0.18%
same,inhibition,[17],Active
same,inhibition,[18],Active
same,inhibition,[19],Dose-Dependent Effect
same,inhibition,[20],Dose-Dependent Effect
same,inhibition in vivo at 5 mg/kg,[21],47.1%
same,Activity,[22],Non-Toxic
same,Activity,[23],Non-Toxic
same,Activity,[24],Non-Toxic
same,Activity,[25],Non-Toxic
same,Activity,[26],Non-Toxic
same,Activity,[27],Non-Toxic
same,Activity,[28],Non-Toxic
same,inhibition,[29],Active
same,inhibition,[30],Active
same,inhibition,[31],Active
same,inhibition,[32],Active
same,inhibition,[33],Active
